Source: patent publication US8895048B2, “Templated islet cells and small islet cell clusters for diabetes treatment” (The University of Kansas, priority 2010, dated 2014)

Tested on: beta cells
Assay: Relative beta cell adhesion to biomaterial films in 96-well plates
Assay type: cell-based, rat
Settings: attached cells 24 hours after plating and three washes, normalized to empty well; triplicate
Procedure: In a typical experiment, 1% stock solutions of the listed biomaterials first were prepared. Most materials dissolved in deionized water at neutral pH. […] Polymers normally soluble in water (e.g. dextran sulfate, alginate, etc.) can be cross-linked to form the film matrix. Approximately 25 μL of each stock solution was added to three individual wells in 96-well plates and left to evaporate or vacuum dried, thus, depositing a thin biomaterial film at the bottom of each well. […] Several proteins offered commercially to promote cell adhesion on well plates (e.g. fibronectin, laminin, etc.) were prescreened for cell adhesion as well.
A dilute suspension of beta cells was incubated in the 96-well plates overnight and washed three times to remove unbound beta cells. The beta cell suspension was homogeneous and equal aliquots per well were assumed to contain a similar quantity of beta cells. […] In general, mildly hydrophobic polymers performed well for adhering beta cells (Table 1).
Cell adhesion was determined by counting the number of attached cells 24 hours after plating on the biomaterial and following three washes. The counts were normalized to the number of cells that attach to a well bottom lacking a biomaterial (see empty well, control) using the following calculation: number of cells attached in the well of interest/number of cells in empty well. Each experiment was repeated in triplicate.

| Substance | Relative cell adhesion |
| --- | --- |
| Laminin | 8.7 ± 0.6 |
| Gelatin | 2.0 ± 0.2 |
| Fibronectin | 3.7 ± 0.7 |
